Experimental data reported in PubChem BioAssay AID330 (DTP/NCI, 2004).
Values joined by “and” are separate entries in the source; they are usually repeats but may differ in a detail not shown here. Equal entries are not always repeated. Inconclusive results and toxic doses are left out. Rule for the calls: active = survival T/C of 150% or more; inactive = T/C below 125% in these data. Peptide text beside a SMILES is read from it.

Test system: P388 leukemia ip, CD2F1 mice, survival T/C
Experiment: NCI In Vivo Anticancer Drug Screen. Data for tumor model P388 Leukemia (intraperitoneal) in CD2F1 (CDF1) mice
Conditions: endpoint: median survival time, higher = longer survival
Summary of the method: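 Mice carrying the transplanted tumor received test compound or vehicle. Survival was recorded in each group, and the value is the treated-group measurement divided by that of the vehicle-treated control group.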

[1] = dose: 12.5 mg/kg/injection, schedule: Q01DX005 (ip), vehicle: Klucel (hydroxypropylcellulose) (HPC)
[2] = dose: 25.0 mg/kg/injection, schedule: Q01DX005 (ip), vehicle: Klucel (hydroxypropylcellulose) (HPC)
[3] = dose: 50.0 mg/kg/injection, schedule: Q01DX005 (ip), vehicle: Klucel (hydroxypropylcellulose) (HPC)
[4] = dose: 100.0 mg/kg/injection, schedule: Q01DX005 (ip), vehicle: Klucel (hydroxypropylcellulose) (HPC)
[5] = dose: 200.0 mg/kg/injection, schedule: Q01DX005 (ip), vehicle: Klucel (hydroxypropylcellulose) (HPC)
[6] = dose: 25.0 mg/kg/injection, schedule: Q01DX009 (ip), vehicle: saline with Tween-80
[7] = dose: 25.0 mg/kg/injection, schedule: Q04DX003 (ip), vehicle: saline with Tween-80
[8] = dose: 50.0 mg/kg/injection, schedule: Q01DX009 (ip), vehicle: saline with Tween-80
[9] = dose: 100.0 mg/kg/injection, schedule: Q01DX009 (ip), vehicle: saline with Tween-80
[10] = dose: 50.0 mg/kg/injection, schedule: Q01DX009 (ip), vehicle: Klucel (hydroxypropylcellulose) (HPC)
[11] = dose: 100.0 mg/kg/injection, schedule: Q01DX009 (ip), vehicle: Klucel (hydroxypropylcellulose) (HPC)
[12] = dose: 200.0 mg/kg/injection, schedule: Q01DX009 (ip), vehicle: Klucel (hydroxypropylcellulose) (HPC)
[13] = dose: 12.5 mg/kg/injection, schedule: Q01DX009 (ip), vehicle: saline
[14] = dose: 25.0 mg/kg/injection, schedule: Q01DX009 (ip), vehicle: saline
[15] = dose: 50.0 mg/kg/injection, schedule: Q01DX009 (ip), vehicle: saline
[16] = dose: 60.0 mg/kg/injection, schedule: Q01DX005 (ip), vehicle: saline with Tween-80
[17] = dose: 120.0 mg/kg/injection, schedule: Q01DX005 (ip), vehicle: saline with Tween-80
[18] = dose: 240.0 mg/kg/injection, schedule: Q01DX005 (ip), vehicle: saline with Tween-80
[19] = dose: 60.0 mg/kg/injection, schedule: Q01DX005 (ip), vehicle: Klucel (hydroxypropylcellulose) (HPC)
[20] = dose: 120.0 mg/kg/injection, schedule: Q01DX005 (ip), vehicle: Klucel (hydroxypropylcellulose) (HPC)
[21] = dose: 100.0 mg/kg/injection, schedule: Q01DX009 (ip), vehicle: saline
[22] = dose: 200.0 mg/kg/injection, schedule: Q01DX009 (ip), vehicle: saline
[23] = dose: 100.0 mg/kg/injection, schedule: Q01DX001 (ip), vehicle: Klucel (hydroxypropylcellulose) (HPC)

Measured: T/C

CCCCCNc1ncnc2c(C)[nH]nc12
inactive: [1] 105 % of control | [2] 98 % of control | [3] 91 % of control | [4] 90 % of control | [5] 90 % of control

O=C1CN(/N=C\c2ccc([N+](=O)[O-])o2)C(=O)N1
inactive: [6] 100 % of control | [7] 110 % of control | [8] 100 % of control | dose: 50.0 mg/kg/injection, schedule: Q04DX003 (ip), vehicle: saline with Tween-80 110 % of control | [9] 109 % of control | dose: 100.0 mg/kg/injection, schedule: Q04DX003 (ip), vehicle: saline with Tween-80 105 % of control

CCC(C)C(=O)C(Br)C(Br)c1ccccc1 (stereo not drawn)
inactive: [10] 101 % of control | [11] 100 % of control | [12] 101 % of control

CN=C(NC(C)C)c1ccccc1
inactive: [13] 91 % of control | [14] 88 % of control | [15] 104 % of control and 88 % of control

CC1=C/C(=N/N=c2\ccn(O)cc2C)C=CC1=N
inactive: dose: 3.13 mg/kg/injection, schedule: Q01DX009 (ip), vehicle: saline with Tween-80 100 % of control | dose: 6.25 mg/kg/injection, schedule: Q01DX009 (ip), vehicle: saline with Tween-80 95 % of control | dose: 12.5 mg/kg/injection, schedule: Q01DX009 (ip), vehicle: saline with Tween-80 104 % of control | [6] 98 % of control

COC(=O)C1=C(C(=O)OC)P2(C)(C)N(C)C(=S)N2C1(c1ccccc1)c1ccccc1
inactive: [3] 102 % of control | [4] 94 % of control | [5] 94 % of control

O=C(CNC(=O)c1ccccc1)N/N=C/c1c(O)ccc2ccccc12
inactive: [16] 95 % of control | [17] 93 % of control | [18] 101 % of control

CC1=C(C(=O)O)CCC1(C)C
inactive: dose: 100.0 mg/kg/injection, schedule: Q04DX002 (ip), vehicle: saline with Tween-80 98 % of control | dose: 200.0 mg/kg/injection, schedule: Q04DX002 (ip), vehicle: saline with Tween-80 101 % of control | dose: 400.0 mg/kg/injection, schedule: Q04DX002 (ip), vehicle: saline with Tween-80 104 % of control

O=S(=O)(c1cnccc1N1CCN(CCCl)CC1)N1CCCCC1
inactive: dose: 6.25 mg/kg/injection, schedule: Q01DX009 (ip), vehicle: saline 98 % of control and 100 % of control | [13] 100 % of control and 104 % of control and 105 % of control | [14] 100 % of control and 108 % of control and 109 % of control

CN(C)/C=C/c1ccc([N+](=O)[O-])o1
inactive: dose: 50.0 mg/kg/injection, schedule: Q01DX009 (ip), vehicle: suspension in saline 100 % of control | dose: 100.0 mg/kg/injection, schedule: Q01DX009 (ip), vehicle: suspension in saline 104 % of control | dose: 200.0 mg/kg/injection, schedule: Q01DX009 (ip), vehicle: suspension in saline 118 % of control

CCN(CC)Cc1cc(N=Nc2ccc([N+](=O)[O-])c(OC)c2)c2ccccc2c1O
inactive: [10] 99 % of control | [11] 95 % of control | [12] 97 % of control

COC(=O)c1ccc(CSc2ccccc2NC(=S)Nc2cccc(C(F)(F)F)c2)o1
inactive: dose: 6.25 mg/kg/injection, schedule: Q01DX005 (ip), vehicle: saline with Tween-80 104 % of control | dose: 12.5 mg/kg/injection, schedule: Q01DX005 (ip), vehicle: saline with Tween-80 100 % of control | dose: 25.0 mg/kg/injection, schedule: Q01DX005 (ip), vehicle: saline with Tween-80 98 % of control

CCCNC(=S)N/N=C(/C)c1nccc2ccccc12
inactive: dose: 100.0 mg/kg/injection, schedule: Q04DX003 (ip), vehicle: Klucel (hydroxypropylcellulose) (HPC) 108 % of control | dose: 200.0 mg/kg/injection, schedule: Q04DX003 (ip), vehicle: Klucel (hydroxypropylcellulose) (HPC) 101 % of control | dose: 400.0 mg/kg/injection, schedule: Q04DX003 (ip), vehicle: Klucel (hydroxypropylcellulose) (HPC) 99 % of control

CN1C(=O)N(C)C2CC(=O)c3c(ccc4c3ncn4C)N2C1=O (stereo not drawn)
inactive: [19] 104 % of control | [20] 108 % of control | dose: 240.0 mg/kg/injection, schedule: Q01DX005 (ip), vehicle: Klucel (hydroxypropylcellulose) (HPC) 114 % of control

CCCCCCCCCCCCCCCCCC[N+]1(CC)CCOCC1
inactive: dose: 0.78 mg/kg/injection, schedule: Q01DX009 (ip), vehicle: saline 87 % of control and 90 % of control | dose: 1.56 mg/kg/injection, schedule: Q01DX009 (ip), vehicle: saline 106 % of control and 87 % of control and 88 % of control | dose: 3.12 mg/kg/injection, schedule: Q01DX009 (ip), vehicle: saline 111 % of control and 87 % of control and 88 % of control | [14] 86 % of control | [15] 96 % of control | [21] 88 % of control | [22] 100 % of control

CCCCCCC(=O)CC(SCC)c1ccccc1 (stereo not drawn)
inactive: [8] 106 % of control | [9] 113 % of control | dose: 200.0 mg/kg/injection, schedule: Q01DX009 (ip), vehicle: saline with Tween-80 114 % of control

COC(=O)C(CSCSCc1ccccc1)NC(=O)C(CSCc1ccccc1)NC(=O)CCNC(=O)OCc1ccccc1 (stereo not drawn)
inactive: dose: 3.12 mg/kg/injection, schedule: Q04DX003 (ip), vehicle: saline 114 % of control | dose: 6.25 mg/kg/injection, schedule: Q04DX003 (ip), vehicle: saline 100 % of control | dose: 12.5 mg/kg/injection, schedule: Q04DX003 (ip), vehicle: saline 98 % of control | dose: 25.0 mg/kg/injection, schedule: Q04DX003 (ip), vehicle: saline 112 % of control

CC(=N/NC(=S)NCCN1CCCC1)/C(C)=N\NC(=S)NCCN1CCCC1
inactive: dose: 6.25 mg/kg/injection, schedule: Q04DX003 (ip), vehicle: saline with Tween-80 117 % of control | dose: 12.5 mg/kg/injection, schedule: Q04DX003 (ip), vehicle: saline with Tween-80 98 % of control | [7] 100 % of control

CCC(C)C(N)C(=O)N1CCCC1C(=O)O (stereo not drawn) (H-Ile-Pro-OH; configuration not given here)
inactive: dose: 60.0 mg/kg/injection, schedule: Q01DX005 (ip), vehicle: saline 98 % of control | dose: 120.0 mg/kg/injection, schedule: Q01DX005 (ip), vehicle: saline 98 % of control | dose: 240.0 mg/kg/injection, schedule: Q01DX005 (ip), vehicle: saline 102 % of control

C#CC1CC2C3CCC4=CC(=O)CCC4(C)C3CCC2(C)C1N(C)C (stereo not drawn)
inactive: dose: 6.25 mg/kg/injection, schedule: Q01DX005 (ip), vehicle: Klucel (hydroxypropylcellulose) (HPC) 99 % of control | [1] 102 % of control | [2] 96 % of control

O=C1Cc2ccccc2N1C(=O)c1ccc(Br)cc1
inactive: [23] 94 % of control | dose: 200.0 mg/kg/injection, schedule: Q01DX001 (ip), vehicle: Klucel (hydroxypropylcellulose) (HPC) 90 % of control

O=C(Nc1ccc(N=C=S)cc1Cl)c1cc(Br)cc(Br)c1O
inactive: dose: 25.0 mg/kg/injection, schedule: Q01DX001 (ip), vehicle: Klucel (hydroxypropylcellulose) (HPC) 106 % of control | dose: 50.0 mg/kg/injection, schedule: Q01DX001 (ip), vehicle: Klucel (hydroxypropylcellulose) (HPC) 100 % of control | [23] 92 % of control and 95 % of control

Cc1c([N+](=O)[O-])oc2ccc3ccccc3c12
inactive: [16] 113 % of control | [17] 94 % of control | [18] 107 % of control

CC(C)=O
inactive: dose: 2.0 % in 0.5 ml injection vol, schedule: Q01DX009 (ip), vehicle: water 97 % of control | dose: 4.0 % in 0.5 ml injection vol, schedule: Q01DX009 (ip), vehicle: water 100 % of control and 101 % of control | dose: 8.0 % in 0.5 ml injection vol, schedule: Q01DX009 (ip), vehicle: water 102 % of control and 106 % of control | dose: 16.0 % in 0.5 ml injection vol, schedule: Q01DX009 (ip), vehicle: water 105 % of control

O=C1/C(=C/c2ccccn2)CCc2ccccc21
inactive: [15] 102 % of control | [21] 101 % of control | [22] 99 % of control

Fc1ccc2nc3ccccc3c(SCCCCCCSc3c4ccccc4nc4ccc(F)cc34)c2c1
inactive: [19] 96 % of control | [20] 90 % of control
